Article PMC11990924, “Inhibition of Tyrosinase and Melanogenesis by Carboxylic Acids: Mechanistic Insights and Safety Evaluation” (Molecules, 2025)
Where two headings read alike, the source gives them in different places.

How the values were obtained:
[1] = target: mushroom tyrosinase (Agaricus bisporus, UniProt C7FF04); test: Inhibition of mushroom tyrosinase activity (L-DOPA, OD475); assay type: biochemical; conditions: read-out: tyrosinase inhibition rate
Method: L-DOPA solution (5 mM) and tyrosinase (400 U/mL) (Sigma-Aldrich, St. Louis, MO, USA) were prepared in PBS buffer (pH 7.4) (Qingdao Hope Bio-Technology Co., Ltd., Qingdao, China). A reaction mixture was prepared by combining 240 μL of carboxylic acid at various concentrations, 360 μL of L-DOPA solution, and 120 μL of tyrosinase. […] Deionized water was used as the control.

[2] = target: T1, tyrosinase (Agaricus bisporus, UniProt C7FF04); test: Fluorescence spectra analysis of tyrosinase; assay type: binding, mushroom; conditions: 6 mM; excitation 280 nm
T1 construct: purchased Sigma-Aldrich
T1 sequence (C7FF04 1-392 limits assumed): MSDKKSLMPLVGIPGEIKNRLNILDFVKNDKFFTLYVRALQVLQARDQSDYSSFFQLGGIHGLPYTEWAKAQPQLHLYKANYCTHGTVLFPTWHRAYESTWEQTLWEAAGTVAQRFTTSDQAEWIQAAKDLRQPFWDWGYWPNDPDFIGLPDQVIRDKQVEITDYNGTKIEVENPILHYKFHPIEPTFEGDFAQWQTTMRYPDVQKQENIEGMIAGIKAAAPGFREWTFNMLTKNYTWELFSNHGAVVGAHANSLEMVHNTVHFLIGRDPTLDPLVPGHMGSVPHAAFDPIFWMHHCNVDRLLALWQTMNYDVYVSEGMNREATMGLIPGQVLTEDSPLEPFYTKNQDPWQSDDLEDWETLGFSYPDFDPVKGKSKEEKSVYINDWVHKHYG
Method: Carboxylic acid solutions at various concentrations were mixed with PBS buffer and tyrosinase (final concentration of 60 U/mL) and then transferred to a black 96-well plate. Fluorescence analysis was conducted using a microplate reader (Infinite 200Pro, Tecan).

[3] = target: T1, tyrosinase; test: Kinetic analysis of tyrosinase (Lineweaver–Burk); assay type: biochemical, mushroom; conditions: for Ki: GraphPad Prism, mixed-model or competitive model, read-out: inhibition constant (Ki); for inhibition mechanism: Lineweaver–Burk double-reciprocal plots; for inhibition constant (KIS) for enzyme–substrate complex: mixed-type inhibitors
Method: L-DOPA solutions at various concentrations (0.5, 1, 2, and 4 mM) were prepared in PBS buffer (pH 7.4) and mixed with carboxylic acids at different concentrations and tyrosinase (final concentration of 60 U/mL). […] The reaction rates were calculated based on the OD values. To analyze the inhibition types of the four carboxylic acids on tyrosinase, double-reciprocal Lineweaver–Burk plots were constructed with 1/v (reaction rate) as the y-axis and 1/[S] (substrate concentration) as the x-axis. The maximum reaction velocity (Vmax) and Michaelis constant (Km) were determined using GraphPad Prism 10 (GraphPad Software, Massachusetts, USA).

[4] = pH of carboxylic acid mixed with PBS buffer, without tyrosinase; assay type: physicochemical; conditions: in PBS buffer, absence of tyrosinase
[5] = L-DOPA auto-oxidation analysis; conditions: for IC50: 37 °C, 12 h, calculated using SPSS, read-out: IC50 for L-DOPA auto-oxidation inhibition
Method: A 5 mM L-DOPA solution was prepared in PBS buffer (pH 7.4). Subsequently, 240 μL of carboxylic acid solution, 360 μL of L-DOPA solution, and 120 μL of PBS buffer were sequentially mixed. The mixture was then incubated at 37 °C for 12 h. […] Deionized water was used as the control. The inhibition of L-DOPA auto-oxidation was calculated using the same method as the melanin content analysis.

[6] = Cell viability of B16-F10 by MTT; assay type: cell-based; conditions: mouse, B16-F10 cells, 6 mM
Method: B16-F10 cells were seeded in 96-well plates at a density of 1 × 10^5 cells/mL and cultured at 37 °C with 5% CO2 for 24 h. Subsequently, various concentrations of carboxylic acids were added, and the cells were further incubated for 24 h. Then, 6 μL of MTT (5 mg/mL) was added, and the cells were cultured for an additional 4 h. Afterward, 200 μL of DMSO was added to dissolve the formazan crystals by gently pipetting up and down. The absorbance at 570 nm (OD570) was measured using a microplate reader (Infinite 200Pro, Tecan), with deionized water serving as the control. The cell viability was calculated with Equation (2): (2) [(OD570 of sample)/OD570 of control]×100%

[7] = system: B16-F10 cells; test: Melanin content analysis of B16-F10 cells (α-MSH stimulated); assay type: cell-based; conditions: Mus musculus; 6 mM, B16-F10, α-MSH 1 μM, 48 h; read-out: melanin inhibition rate
Method: A 900 μL cell suspension with an approximate density of 50% confluence was seeded into a 12-well plate and cultured for 24 h at 37 °C with 5% CO2. Subsequently, various concentrations of carboxylic acids were added, and the cells were further incubated for 1 h. Then, 1 μL of 1 mM α-melanocyte-stimulating hormone (α-MSH) solution was added to achieve a final concentration of 1 μM, and the cells were cultured for an additional 48 h at 37 °C with 5% CO2 to stimulate melanogenesis. Afterward, the cells were digested with trypsin, collected by centrifugation at 10,000 rpm for 5 min (Andreas Hettich GmbH & Co., KG, Tuttlingen, Germany), and the supernatant was discarded. Each tube was treated with 200 μL of 1 M NaOH solution and incubated in a water bath at 60 °C for 20 min. Following incubation, the samples were vortexed to ensure homogeneity, and 200 μL of each sample was transferred to a 96-well plate. The absorbance at 405 nm (OD405) was measured using a microplate reader (Infinite 200Pro, Tecan), and the data were recorded to calculate the melanin content, with deionized water serving as the control. The reduction in melanin content was calculated with Equation (3):(3) [(OD405 of control−OD405 of sample)/OD405 of control]×100%

Sequence of mushroom tyrosinase (C7FF04 2-392): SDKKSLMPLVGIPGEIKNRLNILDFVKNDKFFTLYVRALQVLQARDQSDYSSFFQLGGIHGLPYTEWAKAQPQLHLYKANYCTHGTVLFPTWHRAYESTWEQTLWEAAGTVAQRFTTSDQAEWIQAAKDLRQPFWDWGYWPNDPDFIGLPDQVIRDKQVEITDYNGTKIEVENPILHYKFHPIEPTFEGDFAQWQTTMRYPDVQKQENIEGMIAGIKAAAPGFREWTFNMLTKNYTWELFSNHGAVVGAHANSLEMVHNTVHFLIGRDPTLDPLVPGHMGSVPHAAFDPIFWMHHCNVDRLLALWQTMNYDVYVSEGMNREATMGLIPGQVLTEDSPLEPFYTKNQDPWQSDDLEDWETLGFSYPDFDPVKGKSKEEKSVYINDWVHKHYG

| inhibition at 6000 µM ([1]; 6 mM) [%] | SMILES | decrease of tyrosinase fluorescence intensity [2] [%] | Ki [3] [µM] | inhibition mechanism [3] | inhibition constant (KIS) for enzyme–substrate complex [3] [mM] | pH ([4]; 6 mM) | L-DOPA auto-oxidation inhibition rate ([5]; 1.5 mM) | IC50 [5] [µM] | viability at 24 h, 6 mM [6] [%] | inhibition at 6000 µM [7] [%] | inhibition at 6000 µM [1] [%] | pH ([4]; 3 mM) | L-DOPA auto-oxidation inhibition rate ([5]; 0.75 mM) |
| --- | --- | --- | --- | --- | --- | --- | --- | --- | --- | --- | --- | --- | --- |
| > 80 | O=C(O)C(O)Cc1ccccc1 (stereo not drawn) [3-phenyllactic acid] | 29.3 | 1570 | mixed-type inhibition | 8.526 | around 6 | exceeding 80% | 630 | > 90 | 27.2 | – | – | – |
| – | O=C(O)CC(O)C(=O)O (stereo not drawn) [malic acid] | 29.0 | 606 | mixed-type inhibition | 3.066 | 3.5 | – | 380 | > 90 | 33.6 | > 80 | 4.6 | exceeding 80% |
